Assay results from patent US20120288533A1, “PROTEIN-POLYSACCHARIDE CONJUGATES AND USE FOR ENCAPSULATING NUTRACEUTICALS FOR CLEAR BEVERAGE APPLICATIONS” (Technion Research and Development Foundation Ltd., priority 2011, published 2012).

Tests used:
[1] = CLA protection under acidic conditions (pH 3, 4° C.) with RPH-MD, RP-HPLC; assay type: physicochemical; conditions: CLA 0.09 mg/ml, 0.5% ethanol, 1% protein
Experimental: (§1) The protection conferred by the RPH-MD against HN deterioration with time was evaluated. Different shelf life conditions of temperature 4° C. or 23° C. and pH, neutral or acidic, were tested. Neutral pH conditions were obtained by a pH7 PBS. Acidic conditions for CLA were obtained by a pH 3 citric buffer. Acidic conditions (pH 2.5) for VD were obtained by addition of HCl.
(§2) Following the incubation of HN co-assembled samples under the above shelf life conditions, HN extraction was carried out. Then the HN concentration in the samples was quantified using reversed phase HPLC(RP-HPLC), 4.6×100 mm C18-C2 column, on an Akta basic HPLC system equipped with a 3 simultaneous wavelengths UV detector (GE Healthcare, Waukesha, Wis., USA). The volume of the injection loop was 100 μl, and the operation temperature was 24° C.
(§3) The concentration of the vitamin D was 0.02 mg/ml, a high dosage intended for simulating beverage concentrates, which are later diluted during bottling, but must be colloidally and chemically stable. […]
(§4) To extract CLA, isopropanol (0.5 ml) was added to 0.5 ml sample. […] The separation of CLA was performed with a mobile phase of acetonitrile/water/acetic acid (70/30/0.12, v/v/v) at a flow rate of 1.5 ml/min and CLA was detected at 234 nm, which was found optimal in a spectrum scan (not shown).

[2] = Simulated shelf life of CLA at RT in pH 7 PBS with RPH-MD; assay type: physicochemical; conditions: after 14 days, neutral pH (pH 7 PBS), CLA 0.09 mg/ml, 0.5% ethanol, 1% protein
Experimental: as §1, §2, §3, §4

[3] = Particle size distribution by DLS, RPH / RPH-MD samples with and without CLA or VD, with and without homogenization; assay type: physicochemical; conditions: 0.5% ethanol
Experimental: The conjugate samples were characterized as follows. Two mg/ml (on a protein base) solutions were prepared from the dry heated samples of RPH with and without MD and compared to the unheated control. The RPH-MD powder was dissolved in a pH 7 PBS and stirred overnight for complete hydration. The samples were filtered through 0.45 μm syringe filters (polyvinylidene fluoride, Durapore filter (Millipore, Carrigtwohill, Co. Cork, Ireland).
Additionally, the HN RPH-MD co-assembled particles were analyzed at different concentrations of the VD or CLA.
The dispersion of VD with and without RPH-MD was homogenized by Micro DeBee (Bee International Inc. South Easton Mass., USA) ultra-high pressure homogenizer: process pressure: 20-25 kpsi, Orifice diameter: 0.1 mm. The sample composition was 0.1% protein, 0.5% ethanol, VD concentration 0.02 mg/ml, buffer PBS pH 7. The sample volume subjected to homogenization was 25 ml. The influence of the homogenization process on particles size was evaluated by DLS measurements performed 2 hr after the homogenization.

[4] = Protection of VD against acidic pH treatment (pH 2.5, 2 hr, RT) with RPH-MD, RP-HPLC; assay type: physicochemical; conditions: pH 2.5 for 2 hr at RT; initial VD 0.02 mg/ml, 0.5% ethanol, 0.1% w/w protein
Experimental: as §1, §2, §3
(§5) Vitamin D extraction and HPLC quantification was based on Kazmi et al^57. […] Operating conditions were: ambient temperature (24±1° C.); mobile phase was methanol: acetonitrile: water (49.5:49.5:1 v/v); flow rate was 0.3 ml/min; and the absorbance was measured at 254 nm and 228 nm.

[5] = Shelf life of VD at RT and 4° C. in pH 7 PBS with RPH-MD; assay type: physicochemical; conditions: after 22 days of simulated shelf life at neutral pH and 4° C.; VD 0.02 mg/ml, 0.5% ethanol, 0.1% protein
Experimental: as §1, §2, §3, §5

[6] = Simulated gastric digestion using Nile red (NR adsorption to glass, with and without pepsin); assay type: in vitro ADME; conditions: pepsin:CN mass ratio 1:20, pH 2.5, 2 hrs at 37° C.
Experimental: NR stock solution in ethanol was prepared at a concentration of 0.16 mg/ml=502.6 μM. NR was added during vortexing to the conjugate, mixture or buffer solution, at a concentration of 1.3 μM, to minimize inner filtering effect in fluorescence measurements.
Free NR in aqueous solution adsorbs to the glass walls, which may serve as a convenient way to study its release behavior from nanocapsules. To examine whether NR adsorbs to glass when in water, NR was added to 1 ml of water in a glass vial to a final concentration of 1.3 μM. The vial was left for 2 hrs, then the water was transferred to a new glass vial, and 1 ml of acetone was added to the new vial. At the same time 2 ml of water:acetone (1:1 vol/vol) solution was added to the first vial. After 1 hr both solutions were read for florescence intensity at ex:570, em:645 which is the intensity peak at water:acetone 1:1. Concentration was calculated from the intensity using a NR in water: acetone (1:1) calibration curve.
Then pepsin was added to some of the samples at a concentration of 0.15 mg/ml, in order to reach pepsin: CN mass ratio of 1:20 according to the method by Mandalari et al.^79. […] After 1 hr the acetone: water solution with NR which had adsorbed to the glass was read for fluorescence intensity (ex:570, em:645). NR fluorescence was measured with time to validate that no bleaching occurred during the procedure (data not shown).

Compound: conjugated linoleic acid [CLA]
- residual percentage of CLA ([1]; after 1 day at pH 3.0 and 4° C.): about 20%
- residual percentage of CLA ([1]; after 4 days at pH 3.0 and 4° C.): ~0%
- residual percentage of CLA [2]: 0%
- CLA particle size by DLS ([3]; CLA in PBS pH 7 or 1% protein solutions, RPH-MD value at CLA 0.05-0.015 μg/ml): a few hundred

Compound: Vitamin D3 [Vitamin D3 (VD3)]
- residual VD [4]: 50%
- residual VD [5]: 28%
- VD particle size fraction by DLS, without homogenization ([3]; 0.1% protein, 0.02 mg/ml VD, pH 7 PBS): 100-200 nm

Compound: CCN(CC)c1ccc2nc3c4ccccc4c(=O)cc-3oc2c1 [Nile Red (NR), Nile Red]
- effect of digestion with pepsin on binding of NR (in words) [6]: did not change the binding of NR to casein peptides
